Assay results as given in patent EP4410284A1, “COMPOUND AND METHOD FOR THE TREATMENT OF ZELLWEGER SPECTRUM DISORDER” (Apteeus, priority 2023, dated 2024).
Read-outs that look alike come from different tables or passages of the source.

Tests used:
GM16513 cells [1] = assay: Catalase import immunofluorescence, high-content screening (% importing cells); assay type: cell-based, human; conditions: GM16513 cells, 3 days; for EC50: read-out: EC50
GM16513 cells [2] = assay type: cell-based; conditions: 3 days, PI positive cells (dead cells)
PEX405 cells [3] = assay: Catalase import immunofluorescence, high-content screening (% importing cells); assay type: cell-based, human; conditions: PEX405 cells, 3 days
PEX405 cells [4] = assay type: cell-based; conditions: 3 days, PI positive cells (dead cells)
[5] = dose response with 6 concentrations

Row | Compound | % PI+ cells (GM16513 cells [2]; 1.3 µM) [%] | % PI+ cells (GM16513 cells [2]; 10 µM) [%] | % PI+ cells (PEX405 cells [4]; 1.3 µM) [%] | % PI+ cells (PEX405 cells [4]; 10 µM) [%] | EC50 (GM16513 cells [1]; [5]) [nM] | EC50 (GM16513 cells [1]; Homo sapiens, 72 h, dose response with 6 concentrations) [nM] | % Importing cells (GM16513 cells [1]; 1.3 µM) [%] | % Importing cells (GM16513 cells [1]; 10 µM) [%] | % Importing cells (PEX405 cells [3]; 1.3 µM) [%] | % Importing cells (PEX405 cells [3]; 10 µM) [%] | Max Efficacy (% Importing cells) (GM16513 cells [1]; [5]) [%] | Emax (GM16513 cells [1]; Homo sapiens, 72 h, dose response with 6 concentrations, read-out: Max Efficacy (% Importing cells)) [%]
1 | CCOC(=O)NCCCC(=O)NCCc1ccccc1 [Santacruzamate A] | 1 | 1 | 2 | 1 |  |  | 24 | 25 | 3 | 3 |  | 
2 | O=C(CCCCCN1C(=O)c2cccc3cccc(c23)C1=O)NO [Scriptaid] | 2 | 8 | 1 | 6 |  |  | 57 | 92 | 15 | 16 |  | 
3 | O=C1CCc2c(ccc3ccccc23)O1 [Splitomicin] | 1 | 1 | 0 | 1 |  |  | 33 | 25 | 5 | 5 |  | 
4 | O=C(CCCCCCC(=O)NO)NO [Suberoyl bis-hydroxamic acid] | 1 | 2 | 1 | 1 |  |  | 13 | 57 | 4 | 10 |  | 
5 | CC(C)(CNC(=O)c1cccc(-c2noc(C(F)(F)F)n2)c1)c1coc(-c2ccccc2)n1 [TMP195] | 1 | 1 | 1 | 1 |  |  | 13 | 8 | 2 | 1 |  | 
6 | O=C(NCC1(c2nc(-c3ccccc3)cs2)CCOCC1)c1cccc(-c2noc(C(F)(F)F)n2)c1 [TMP269] | 1 | 1 | 0 | 1 |  |  | 11 | 7 | 3 | 3 |  | 
7 | CC(=O)Nc1ccc(C(=O)Nc2ccccc2N)cc1 [Tacedinaline] | 1 | 2 | 1 | 1 |  |  | 15 | 18 | 2 | 4 |  | 
8 | COc1cccc2c1c(O)c(C(=O)N(C)c1ccc(C(F)(F)F)cc1)c(=O)n2C [Tasquinimod] | 1 | 1 | 0 | 0 |  |  | 23 | 22 | 7 | 4 |  | 
9 | CC(/C=C/C(=O)NO)=C\[C@@H](C)C(=O)c1ccc(N(C)C)cc1 [Trichostatin A] | 18 | 30 | 24 | 49 |  |  | 90 | 76 | 28 | 0 |  | 
10 | ACY-1083 | 2 | 1 | 1 | 1 |  |  | 17 | 42 | 5 | 4 |  | 
11 | HDACs/mTOR Inhibitor 1 | 14 | 24 | 8 | 40 |  |  | 77 | 96 | 9 | 33 |  | 

Now from value to compound, other results behind:

Row | % PI+ cells (GM16513 cells [2]; 1.3 µM) [%] | % PI+ cells (GM16513 cells [2]; 10 µM) [%] | % PI+ cells (PEX405 cells [4]; 1.3 µM) [%] | % PI+ cells (PEX405 cells [4]; 10 µM) [%] | EC50 (GM16513 cells [1]; [5]) [nM] | EC50 (GM16513 cells [1]; Homo sapiens, 72 h, dose response with 6 concentrations) [nM] | Compound | % Importing cells (GM16513 cells [1]; 1.3 µM) [%] | % Importing cells (GM16513 cells [1]; 10 µM) [%] | % Importing cells (PEX405 cells [3]; 1.3 µM) [%] | % Importing cells (PEX405 cells [3]; 10 µM) [%] | Max Efficacy (% Importing cells) (GM16513 cells [1]; [5]) [%] | Emax (GM16513 cells [1]; Homo sapiens, 72 h, dose response with 6 concentrations, read-out: Max Efficacy (% Importing cells)) [%]
12 | 2 | 2 | 1 | 23 | 4000 |  | O=C(CCCCCCC(=O)Nc1ccc(CN[C@H](C(=O)OC2CCCC2)c2ccccc2)cc1)NO [Tefinostat] | 33 | 91 | 24 | 24 | 97 | 
13 |  | 4 |  | 4 |  |  | O=C(CCCCCCC(=O)Nc1ccc([C@H]2O[C@@H](CSc3nc(-c4ccccc4)c(-c4ccccc4)o3)C[C@@H](c3ccc(CO)cc3)O2)cc1)NO [Tubacin] |  | 39 |  | 5 |  | 
14 | 2 | 1 | 1 | 1 |  |  | CN1CCc2c(c3ccccc3n2Cc2ccc(C(=O)NO)cc2)C1.Cl [Tubastatin A (Hydrochloride), Tubastatin A] | 12 | 37 | 3 | 6 |  | 
15 | 1 | 1 | 1 | 1 |  |  | CN1CCc2c(c3ccccc3n2Cc2ccc(C(=O)NO)cc2)C1 [Tubastatin A] | 26 | 32 | 5 | 6 |  | 
16 | 1 | 4 | 0 | 2 |  | 1500 | Nc1cc(F)ccc1NC(=O)c1ccc(CNC(=O)/C=C/c2cccnc2)cc1 [Tucidinostat] | 43 | 64 | 14 | 28 |  | 70
17 | 1 | 1 | 0 | 1 |  |  | CCCCNNC(=O)c1ccc(Br)cc1 [UF010] | 12 | 16 | 3 | 2 |  | 
